Assay results published in patent US20230357272A1, “OCTAHYDROPYRAZINODIAZANAPHTHYRIDINE DIONE COMPOUNDS” (MEDSHINE DISCOVERY INC., priority 2020, published 2023).

How the values were obtained:
[1] = test system: MIA-PA-CA-2 cells; test: Anti-proliferation experiment of MIA-PA-CA-2 cells (CellTiter-Glo); format: cell-based; conditions: Homo sapiens, MIA PaCa-2, 72 h, 3 days
Protocol: DMEM culture medium, fetal bovine serum purchased from Biosera, and horse serum purchased from Gibco. CellTiter-Glo (chemiluminescence detection reagent for cell viability) reagent purchased from Promega. MIA-PA-CA-2 cell line purchased from Nanjing CoBioer Biotechnology Co., Ltd. EnVision multi-label analyzer (PerkinElmer).
MIA-PA-CA-2 cells were seeded in a white 96-well plate with 80 μL of cell suspension per well, which contained 1000 MIA-PA-CA-2 cells. The cell plate was incubated overnight in a carbon dioxide incubator.
The compounds to be tested were diluted 5-fold with a row gun to the eighth concentration, that is, from 2 mM to 26 nM, and a double-duplication experiment was set up. 78 μL of culture medium was added to a middle plate, and then 2 μL of gradient diluted compound per well was transferred to the middle plate according to the corresponding position. After being thoroughly mixed, 20 μL per well was transferred to the cell plate. The concentration range of the compound transferred to the cell plate was 10 μM to 0.13 nM. The cell plate was placed in the carbon dioxide incubator for 3 days. Another cell plate was prepared, and the signal value was read as the maximum value (Max value in the equation below) on the day of administration to participate in data analysis. 25 μL of cell viability chemiluminescence detection reagent was added to each well of the cell plate, and incubated at room temperature for 10 minutes to stabilize the luminescence signal. A multi-label analyzer was used for reading.
Using the equation (Sample−Min)/(Max−Min)*100% to convert the raw data into inhibition rate, and the value of IC50 might be obtained by curve fitting with four parameters (obtained by “log (inhibitor)/response—Variable scope” mode in GraphPad Prism software). Table 2 provides the inhibitory activity of the compounds of the present disclosure on the proliferation of MIA-PA-CA-2 cells.

[2] = test system: human colon cancer CO-04-0070 subcutaneous xenograft tumor; test: In vivo pharmacodynamic study on human colon cancer CO-04-0070 subcutaneous xenograft tumor model; set-up: species or system BALB/c nude mouse; conditions: for Tumor volume (Day 0): Day 0 (at grouping); for Tumor volume (Day 0) / Tumor volume (Day 20) / Tumor weight (Day 20): mean ± SEM, n = 8; for RTV (Day 20) / T/C (%) (Day 20) / T/Cweight / TGI (%) (Day 20) / Tumor volume (Day 20) / Tumor weight (Day 20): Day 20
Protocol: To evaluate the in vivo efficacy of the compound in the human colon cancer CO-04-0070 subcutaneous xenograft tumor BALB/c nude mouse model.
Each animal was inoculated with a CO-04-0070 FP7 tumor block with a volume of about 30 mm^3 in the right back position. When the mean tumor volume reached 151 mm^3, random grouping was used and the administration was started.
Tumor diameters were measured with vernier calipers twice a week. The calculation formula of tumor volume was: V=0.5a×b^2, wherein a and b represented the long and short diameters of the tumor, respectively.
The anti-tumor efficacy of the compounds was evaluated by TGI (%) or relative tumor proliferation rate T/C (%). Relative tumor proliferation rate T/C (%)=TRTV/CRTV×100% (TRTV: mean RTV of the treatment group; CRTV: mean RTV of the negative control group). The relative tumor volume (RTV) was calculated according to the results of tumor measurement, and the calculation formula was RTV=Vt/V0, wherein V0 was the tumor volume measured at the time of group administration (that is, D0), Vt was the tumor volume at a certain measurement, and the data of TRTV and CRTV were taken on the same day. TGI (%), reflecting the tumor growth inhibition rate.
TGI (%)=[1−(mean tumor volume at the end of administration in a treatment group−mean tumor volume at the beginning of administration in the treatment group)/(mean tumor volume at the end of treatment in vehicle control group−mean tumor volume at the beginning of treatment in vehicle control group)]×100%.
After the experiment, the tumor weight would be detected, and the percentage of T/Cweight would be calculated. Tweight and Cweight represented the tumor weight of the administration group and the vehicle control group, respectively.

For `C=CC(=O)N1CCN2c3c(c(=O)n(-c4c(C)ccnc4C(C)C)c4c(=O)n(-c5c(N)c(Cl)cc(Cl)c5F)c(C(F)(F)F)cc34)OCC[C@H]2C1` [Compound 1D], the IC50 [1] was 8 nM, the “Tumor volume (Day 0)” value ([2]; 3 mg/kg PO QD × 3 weeks) was 151 mm^3 and the “RTV (Day 20)” value ([2]; 3 mg/kg PO QD × 3 weeks) was 5.32. For the same compound, the “T/C (%) (Day 20)” value ([2]; 3 mg/kg PO QD × 3 weeks) was 58.0%, the T/Cweight ([2]; 3 mg/kg PO QD × 3 weeks) was 61.6% and the “TGI (%) (Day 20)” value ([2]; 3 mg/kg PO QD × 3 weeks) was 45.4%. The “Tumor volume (Day 20)” value ([2]; 3 mg/kg PO QD × 3 weeks) was 788 mm^3, the “Tumor weight (Day 20)” value ([2]; 3 mg/kg PO QD × 3 weeks) was 0.832 ± 0.102 g and the “Tumor volume (Day 0)” value ([2]; 10 mg/kg PO QD × 3 weeks) was 151 mm^3. The “RTV (Day 20)” value ([2]; 10 mg/kg PO QD × 3 weeks) was 2.43, the “T/C (%) (Day 20)” value ([2]; 10 mg/kg PO QD × 3 weeks) was 26.5% and the T/Cweight ([2]; 10 mg/kg PO QD × 3 weeks) was 30.1%. For the same compound, the “TGI (%) (Day 20)” value ([2]; 10 mg/kg PO QD × 3 weeks) was 80.5%, the “Tumor volume (Day 20)” value ([2]; 10 mg/kg PO QD × 3 weeks) was 379 mm^3 and the “Tumor weight (Day 20)” value ([2]; 10 mg/kg PO QD × 3 weeks) was 0.406 ± 0.095 g. For the same compound, the “Tumor volume (Day 0)” value ([2]; 30 mg/kg PO QD × 3 weeks) was 151 mm^3, the “RTV (Day 20)” value ([2]; 30 mg/kg PO QD × 3 weeks) was 1.02 and the “T/C (%) (Day 20)” value ([2]; 30 mg/kg PO QD × 3 weeks) was 11.1%. The T/Cweight ([2]; 30 mg/kg PO QD × 3 weeks) was 12.0%, the “TGI (%) (Day 20)” value ([2]; 30 mg/kg PO QD × 3 weeks) was 99.9% and the “Tumor volume (Day 20)” value ([2]; 30 mg/kg PO QD × 3 weeks) was 152 mm^3. The “Tumor weight (Day 20)” value ([2]; 30 mg/kg PO QD × 3 weeks) was 0.162 ± 0.023 g.
